Measured values published in US20190078161A1, “METHOD FOR IDENTIFYING CLINICAL TRIAL RESPONDERS FROM A PLACEBO GROUP IN MAJOR DEPRESSION” (Tekada Pharmaceutical Company Limited, priority 2016, published 2019).

Key:
Type in all cases: in vivo, human
adult patients with MDD [1] = assay: TAK-316 Trial: change from baseline in MADRS total score, 8 weeks of treatment
Procedure: (§1) Multicenter, randomized, double-blind, parallel-group, placebo-controlled, drug-referenced, fixed-dose studies were conducted to evaluate the efficacy and safety of vortioxetine in the acute treatment of adult patients with MDD. A total of 595 individuals meeting the diagnostic criteria from the DSM-IV-TR for recurrent MDD were included in the studies, TAK-315, -316 and -317. The current major depressive disorder for each individual was confirmed by the Structured Clinical Interview for DSM Disorders (SCID). […] Individuals were treated with 10, 15 or 20 mg vortioxetine, or a different drug, or administered a placebo daily for 8 weeks.
(§2) Subjects were seen weekly during the first 2 weeks of treatment and then every 2 weeks up to the end of the 8-week treatment period. The primary outcome measure was change from baseline in MADRS total score after 8 Weeks of treatment. MADRS is a depression rating scale consisting of 10 items, each rated 0 (no symptom) to 6 (severe symptom). The 10 items represent the core symptoms of depressive illness. The rating is based on a clinical interview with the patient, moving from broadly phrased questions about symptoms to more detailed ones, which allow a precise rating of severity, covering the most recent 7 days. Total score is from 0 to 60, with a higher the score being the more severe. […]

adult patients with MDD [2] = assay: TAK-315 Trial: change from baseline in MADRS total score, 8 weeks of treatment
Procedure: as §1, §2

adult patients with MDD [3] = assay: Combined TAK-315 and TAK-316 Trials: predicted MADRS response rate by 24-SNP placebo subgroup
Procedure: as §1
Secondary outcome measures included the proportion of responders at week 8 (responders defined as a 50% decrease in MADRS total score from baseline); a change from baseline in MADRS total score at week 8; and a change in clinical status using CGI-I score at week 8. The CGI-I scale is a 7-point scale rated from 1 (very much improved) to 7 (very much worse). The investigator rated the patient's overall improvement relative to baseline, whether or not, in the opinion of the investigator, this was entirely due to the treatment.
A main effect model was utilized to identify genes or single variants prognostic of response using the placebo samples.
In the placebo arm, the mean response rate in the subgroup [N=125; BM(+)] was 47.33% (CL: 0.38-0.57) and not in the subgroup [N=94; BM(−)] was 15.52% (CL: 0.1-0.25). The subgroup size in the placebo arm was 57.1% [BM(+)] and 42.9% [BM(−)]. […] The placebo subgroup size in the Vortioxetine 20 mg treat arm was 45.9(%) [BM(+), N=89] and 54.1% [BM(−), N=105].
FIG. 8 provides a comparison of the 24 SNP placebo model in the three trials' (TAK-315, 316 & 317) placebo arms and the 20 mg vortioxetine dose in TAK-315 and -316. […] In the placebo arm the mean response rate in the subgroup [N=187; BM(+)] was 46.63% (CL: 0.39-0.55) and not in the subgroup [N=148; BM(−)] was 17.02% (CL: 0.12-0.24). The subgroup size in the placebo arm was 55.8% [BM(+)] and 44.2% [BM(−)]. […] The subgroup size in the Vortioxetine 20 mg treat arm was 45.9% [BM(+), N=89] and 54.1% [BM(−), N=105].

[4] = 20 mg vortioxetine daily, 8 weeks

## Cc1ccc(Sc2ccccc2N2CCNCC2)c(C)c1 [vortioxetine]
Adult patients with MDD [1]; [4]
  LS mean (SE) change from baseline in MADRS score: −13.87 (1.63)
Adult patients with MDD [1]; 20 mg vortioxetine vs 24-SNP Placebo BM(+) subgroup, SE 2.14
  LS mean difference in MADRS change, active vs. placebo BM(+): 0.12
Adult patients with MDD [2]; [4]
  LS mean (SE) change from baseline in MADRS score: −15.56 (1.67)
Adult patients with MDD [2]; 20 mg vortioxetine vs 24-SNP Placebo BM(+) subgroup, SE 2.11
  LS mean difference in MADRS change, active vs. placebo BM(+): 0.12
Adult patients with MDD [3]; Vortioxetine 20 mg arm (TAK-315 and -316), placebo BM(+) subgroup N=89, analysis with TAK-315/316/317 placebo arms (FIG. 8)
  mean response rate (MADRS, LSmean predicted response rate): 36.00%
Adult patients with MDD [3]; Vortioxetine 20 mg arm (TAK-315 and -316), placebo BM(−) subgroup N=105, analysis with TAK-315/316/317 placebo arms (FIG. 8)
  mean response rate (MADRS, LSmean predicted response rate): 44.0%
Adult patients with MDD [3]; Vortioxetine 20 mg arm, placebo BM(+) subgroup N=89, TAK-315/316 analysis (FIG. 6)
  mean response rate (MADRS, LSmean predicted response rate): 35.96%
Adult patients with MDD [3]; Vortioxetine 20 mg arm, placebo BM(−) subgroup N=105, TAK-315/316 analysis (FIG. 6)
  mean response rate (MADRS, LSmean predicted response rate): 43.0%
